Patent publication US20050255493A1, “Molecular targeting of the IGF-1 receptor” (priority 2002, published 2005)

How the values were obtained:
IGF1R mRNA = assay: Oligonucleotide scanning array hybridisation with labelled transcript; assay type: binding, human; settings: for Hybridisation to IGF1R mRNA on scanning array: 37° C. (and 23° C.); for Rel hyb intensity: relative to the most strongly hybridising sequence on the array; for Hyb intensity: scanning array probed with labelled IGF1R mRNA
Procedure: Scanning arrays complementary to the region of the IGF1R mRNA from position 537-685 were prepared using the standard techniques described in Southern E. M. et al., Nucleic Acids Res., 1994, 22(8): 1368-1373; and Sohail, M. and Southern, E. M. “Using oligonucleotide scanning arrays to find effective antisense reagents”, Methods in Molecular Biology, vol. 170: DNA Arrays: Methods and Protocols, Ed J. B. Rampal, Humana Press Inc., Totowa, N.J.
The scanning arrays comprise sets of oligonucleotides of various lengths. A series of oligonucleotides, complementary to the target mRNA, is made by sequential coupling of nucleotides to a solid surface. The DNA synthesis reagents are applied to a confined area on the surface of the solid support using a mask. The mask is shifted along the surface after each round of coupling, resulting in a series of oligonucleotides each complementary to a region of the target sequence.
• 2. Remove 1 μL for quantitation (see below). • 3. Remove unincorporated label by Sephadex® G25 column chromatography (see Note 11). • 4. Save 1 μL of the purified transcript for quantitation (see below). • 5. Check the integrity of the transcript by denaturing polyacrylamide gel electrophoresis (10). • 6. Add 10 μL of the scintillation fluid to the samples saved in Steps 2 and 4. • 7. Mix by vortexing and count the samples in a scintillation counter for 1 min. • 8. Calculate the percent incorporation: [formula] • 9. Calculate the amount of RNA made: [formula] Hybridisation to Arrays Made on Polypropylene • 1. Place the array in the hybridisation tube, coiling it in a spiral. • 2. Dilute the radiolabelled transcript in an appropriate volume (10-20 mL depending upon the size of the array and the hybridisation tube) of hybridisation buffer. The mix should cover the array along the length of the tube. • 3. Place items 1 and 2 in the oven at desired temperature for 30 min. Also put approximately 100 mL of the hybridisation buffer in the oven: this is to be used to wash the array at the end of hybridisation. • 4. Pour the hybridisation mix into the tube containing the array and hybridise for 3-4 h. • 5. Remove the hybridisation mix. Briefly wash the array with the hybridisation buffer from Step 3, air dry, cover with cling film and expose to a storage phosphor screen for 16-20 h (see Note 12). • 6. Scan the screen on PhosphorImager or STORM and analyse the image using xvseq (see below). Hybridisation to Arrays Made on Glass • 1. Clean the non-array glass plate with acetone and ethanol to ensure it is grease-free and siliconise it by treatment with dimethyl dichlorosilane solution and place it in lidded box. Also place moist paper towel in the box. • 2. Dilute the radiolabelled transcript in an appropriate volume of the hybridisation buffer (for example, for an array of 250 mm×50 mm use 500-750 μL). • 3. Place items 1 and 2 in an incubator at desired temprature for 30 min. Also put approximately 100 mL of the hybridisation buffer in the oven: this is to be used to wash the array at the end of hybridisation. • 4. Using a micropipette, pipette the hybridisation mix in a line evenly along the length of the non-array glass plate, avoiding formation of air bubbles. • 5. Starting at one end, carefully place the scanning array (face down) on top of the hybridisation mix. The mix will spread out and form a thin film between the two plates. Incubate for 3-4 h. • 6. Separate the plates from each other and wash the array plate with hybridisation buffer to remove unbound mix. Drain the plate, air dry, cover with cling film and expose to a storage phosphor screen for 16-20 h. • 7. Scan the screen on PhosphorImager or STORM and analyse the image using xvseq (see below). Alternative Hybridisation Protocol for Glass or Polypropylene • 1. Assemble with clips the array plate (or polypropylene array pasted with PhotoMount™ on a glass plate) and the non-array plate, using rubber tubing as spacers on two sides. • 2. […]

IGF1R = IGF1R level by immunoblotting in transfected MDA-231 cells; assay type: cell-based, human; settings: for IGF1R Protein Level (% control): MDA-231 cells, 48 hr, vs scrambled control
Procedure: (§1) The human and murine cell lines used in this study were cultured in RPMI 1640 plus 10% FCS at 37° C. in a humidified atmosphere of 5% CO2. The cultures were negative when tested for Mycoplasma infection. Cultures were passaged the day before transfection to achieve 30-50% confluence the following day. Initial transfections of ASOs used 1-2.5 μg/ml Cytofectin (Glen Research, Sterling, Va.), according to the manufacturer's instructions. Latterly Oligofectamine (Life Sciences) has been used for all ASO and RNAi transfections. The method was as described (see manufacturer's instructions and www.dharmacon.com) with minor modifications. For transfection of monolayers seeded in 6 well plates, 5 μl phosphorothioate oligonucleotide or RNA duplex at 100× final concentration were mixed with 2501 serum-free Optimem (Gibco-BRL). In a separate tube 2 μl Oligofectamine was mixed with 68 μl Optimem. After 10 min incubation at room temperature the contents of the two tubes were mixed and incubated for a further 25 min at room temperature. Monolayers were washed with 1-2 ml Optimem. To the cells were added 175 μl Optimem followed by the 325 μl complexes. Volumes were scaled up by factors of 2.22 or 6.05 for transfection in 60 mm or 100 mm dishes respectively. Cultures were incubated at 37° C. for 4 hr, and then 50 μl FCS and 3.5 ml RPMI plus 5% FCS were added to each well. After 48 hr incubation effects on IGF1R and IR expression were determined by immunoblotting. Some transfected cultures were serum-starved overnight, divided into two aliquots and treated with 10 nM Long R3-IGF-I (GroPep, Adelaide) or diluent for 30 min at 37° C. prior to lysis.
(§2) IGF1R expression was assessed by immunoblotting as previously described (Macaulay et al 2001). After washing in ice-cold PBS, cells were lysed in 50 mM Hepes pH 7.5, 100 mM NaCl, 10 mM EDTA, 1% Triton-X-100, 4 mM sodium pyrophosphate, 2 mM sodium orthovanadate, 10 mM sodium fluoride, 1 mM PMSF, 2 μg/ml each leupeptin and aprotinin. Lysates were centrifuged for 15 minutes at 14,000 g, the protein concentration of supernatants was measured using BCA assay reagent (Pierce), and equivalent amounts of protein were separated on 7.5% SDS-PAGE gels and transferred to nitrocellulose. Target protein levels were assessed using antibodies to the β-subunit of the IGF1R or IR (Santa Cruz), phospho-Ser 473 Akt or total Akt (Cell Signalling, New England Biolabs) or β-tubulin (Sigma). Activated IGF1R was detected by immunoprecipitation for phosphotyrosine (P-Tyr-100, Cell Signaling Technology). Primary antibodies were detected with HRP-conjugated secondary antibodies (Dako), and ECL Plus (Amersham Pharmacia).
(§3) The ASOs and RNAi duplexes were transfected into MDA-231 cells (human ER negative breast cancer) using Cytofectin or Oligofectamine, as described above. After 48 hr the cells were lysed, and IGF1R and IR levels were measured by immunoblotting. The intensity of the autoradiographic bands was quantified by densitometry, and IGF1R (or IR) levels were corrected for loading differences. The specific IGF1R or IR results are presented as % IGF1R (or IR) level of that in cells transfected with the same concentration of an appropriate control. This was a scrambled control oligonucleotide for ASOs, and an inverted RNA duplex for RNAi.

IR = IR level by immunoblotting in transfected MDA-231 cells; assay type: cell-based, human; settings: for IR Protein Level (% control): 48 hr, vs scrambled control; for IR downregulation: TSS ASO at 300 nM; for Selectivity for IGF1R mRNA versus IR mRNA: compared with TSS ASO
Procedure: as §1, §2, §3

MDA-MB-231 cells = assay: Clonogenic survival and post-irradiation survival (SF2) of transfected MDA-MB-231 cells; assay type: cell-based, human; settings: MDA-MB-231, 100 nM
Procedure: FIG. 7 A) MDA-MB-231 cells transfected with 100 nM RNA duplexes were serum-starved overnight and treated with 50 nM IGF-I for 30 min. […] Results represent mean±sem of colony counts in triplicate dishes. Similar results were obtained in two further clonogenic assays. • C) Clonogenic survival of transfected MDA-MB-231 cells that were unirradiated or irradiated at 2Gy. The fraction surviving 2Gy irradiation (SF2) is shown as mean±sem of three independent assays.
The effect of transfection with 100 nM ASO4 or siRNA duplexes R4 and R5, equivalent to strongly and weakly hybridizing ASOs respectively, on colony forming efficiency and post-irradiation survival was also evaluated. […] This in turn illustrates the utility of hybridisation to the scanning ASO array in the selection of siRNA reagents, since relative hybridisation to the array is found to be predictive of activity in RNA interference and biological efficacy.

Substance: ASO2 (20mer): phosphorothioate antisense oligonucleotide TGGTCTTCTCACACATCGGC, SEQ ID NO:7 (DNA, all phosphorothioate, methylation of C not given here)
- Hybridisation to IGF1R mRNA on scanning array (IGF1R mRNA): hybridised strongly
- IGF1R Protein Level (% control) (IGF1R; 30 nM ASO): 84 ± 11 % control
- IGF1R Protein Level (% control) (IGF1R; 300 nM ASO): 47 ± 5 % control

Substance: 15mer: 15mer sequence described by Wraight et al. which falls within the region 537-685, gtgcagcagcggtag (DNA GTGCAGCAGCGGTAG; further chemistry not given here) [reference compound]
- Rel hyb intensity (IGF1R mRNA): 0.03
- Hyb intensity (IGF1R mRNA): 1695

Substance: ASO3: phosphorothioate antisense oligonucleotide ATTGTTGATGGTGGTCTTCT, SEQ ID NO:11 (DNA, all phosphorothioate, methylation of C not given here)
- Hybridisation to IGF1R mRNA on scanning array (IGF1R mRNA): hybridises only at 23 °C
- Rel hyb intensity (IGF1R mRNA): >0.13
- Hyb intensity (IGF1R mRNA): >7048
- IGF1R Protein Level (% control) (IGF1R; 30 nM ASO): 105 ± 18 % control
- IGF1R Protein Level (% control) (IGF1R; 300 nM ASO): 104 ± 22 % control

Substance: ASO1 (20mer): phosphorothioate antisense oligonucleotide CGGCTTCTCCTCCATGGTCC, SEQ ID NO:2 (DNA, all phosphorothioate, methylation of C not given here)
- Hybridisation to IGF1R mRNA on scanning array (IGF1R mRNA): hybridised strongly
- IGF1R Protein Level (% control) (IGF1R; 30 nM ASO): 66 ± 23 % control
- IGF1R Protein Level (% control) (IGF1R; 300 nM ASO): 38 ± 6 % control
- IR Protein Level (% control) (IR; 30 nM ASO): 112 % control
- IR Protein Level (% control) (IR; 300 nM ASO): 135 % control
- IR downregulation (IR): did not cause significant downregulation of IR
- Selectivity for IGF1R mRNA versus IR mRNA (IR): greater selectivity for IGF1R mRNA versus IR mRNA

Substance: ASO4: phosphorothioate antisense oligonucleotide GCGGTAGTTGTACTCATTGT, SEQ ID NO:13 (DNA, all phosphorothioate, methylation of C not given here)
- Hybridisation to IGF1R mRNA on scanning array (IGF1R mRNA): hybridised strongly
- Rel hyb intensity (IGF1R mRNA): >0.59
- Hyb intensity (IGF1R mRNA): >33,162
- IGF1R Protein Level (% control) (IGF1R; 30 nM ASO): 73 ± 2 % control
- IGF1R Protein Level (% control) (IGF1R; 300 nM ASO): 49 ± 2 % control
- IR Protein Level (% control) (IR; 30 nM ASO): 97 % control
- IR Protein Level (% control) (IR; 300 nM ASO): 92 % control
- IR downregulation (IR): did not cause significant downregulation of IR
- Selectivity for IGF1R mRNA versus IR mRNA (IR): greater selectivity for IGF1R mRNA versus IR mRNA
- Survival after 2Gy irradiation (SF2) (MDA-MB-231 cells; 2Gy): entirely non-specific
- Clonogenic survival (MDA-MB-231 cells; unirradiated): entirely non-specific

Substance: ASO5: phosphorothioate antisense oligonucleotide GTGGTCCAGCAGCGGTAGTT, SEQ ID NO:15 (DNA, all phosphorothioate, methylation of C not given here)
- Hybridisation to IGF1R mRNA on scanning array (IGF1R mRNA): hybridised strongly
- Rel hyb intensity (IGF1R mRNA): >0.07
- Hyb intensity (IGF1R mRNA): >4150

Substance: Mut2: R2 duplex with single base pair mutation GCCGAUGUGUGUGAAGACCTT / TTCGGCUACACACACUUCUGG, SEQ ID NO:28 (sense GCCGAUGUGUGUGAAGACCNN; chemistry not fully specified; one strand is listed 3' to 5')
- IGF1R downregulation compared between 21mer duplexes (IGF1R; MDA-231 cells, 0.5, 5 and 50 nm (FIG. 5)): partially, though not completely, blocked
